Common to all, as to format: cell-based
For assay [1], the system named is Pseudomonas aeruginosa. Kind of assay: Test for adequate preservation in skin cream formulation (microorganism counts). The settings on record: skin cream emulsion pH 6.75; concentration in label. The method, then: (§1) A test for adequate preservation was carried out in accordance with the European Pharmacopea (6.0) and United States Pharmacopea (5.1). The testing consisted of the inoculation of a skin cream formulation serving as an emulsion substrate. The skin cream formulation having a pH of 6.75 was as follows: […]
(§2) This skin cream was the emulsion substrate, which formed the base for all further experimentation.
(§3) For Examples 3.1 through 3.10, 390.0 g cream were weighed into a 600-ml beaker. The cream was stirred at room temperature while adding the ingredients specified in Table 51. Each sample was stirred for 2 hours, then placed in the refrigerator until inoculated.
(§4) For Examples 3.11 and 3.12, 179.4 g cream were weighed into a 400-ml beaker. The cream was stirred at room temperature while adding the specified ingredients.
(§5) The samples of Examples 3.1 through 3.10 were challenged with specific organisms (see Table 51) to produce a contamination of between 1.0×10^5 cfu/g and 1.0×10^6 cfu/g. The actual inoculation counts resulting from these challenges were immediately determined by diluting in sterile buffered water and (spread plate method) plating for enumeration.
(§6) Challenge organisms were prepared in Mueller-Hinton broth, allowed to grow for 72 hours at 35° C.+/−2° C., centrifuged at 2500 rpm for 5 minutes, and the supernatant broth was removed. The microbial pellet was then re-diluted with sterile buffered water to a turbidity that matched previous 1.0×10^8 cfu/g concentrations of that organism's specific growth curve.
(§7) The test emulsions were maintained within a specific temperature range optimal for the organisms; 35° C.+/2° C. for the bacteria and 22° C.+/−2° C. for the fungi, for the first three days. They were kept at ambient room temperature for the subsequent time periods.
(§8) Subculture samples of approximately 1 gram were taken for counts at 7, 14, and 30 days and incubated under optimal conditions and nutrition for no less than 5 days. Subcultures were diluted 1:2, 1:10, 1:100, . . . , 1:10,000 and plated using the spread plate method onto Plate Count Agar and onto SAB Dextrose Agar for the Candida and Aspergillus species; and incubated as follows: 35° C.+/−2° C. for the Plate Count Agar and 22° C.+/−2° C. for the SAB Dextrose plates of Candida albicans and Aspergillus niger. Negative results were not reported before 7 days incubation, and counts were performed after no less than 5 days incubation. Because of the high viscosity of the test emulsion, at least a 1:2 dilution was required to perform the spread plate subcultures. 0-30 counts represent a 1 to 2 dilution, numbers […] a 1:10 dilution; and the rest represent dilutions of 1:100, 1:1000, or 1:10,000. […]

Assay [2] deals with Aspergillus niger. Described as above. Particulars: skin cream emulsion pH 6.75; concentration in label. The procedure:
as §1, §2, §3, §4, §5, §6, §7, §8

Assay [3] deals with Staphylococcus aureus ATCC 25923. Kind of assay: MIC determination and synergy testing (Kull synergy index), microplate. The settings on record: for QA, MIC of CHDM alone / QA/a: concentration of CHDM alone (QA, MIC): S. aureus; for QA/a: concentration of CHDM alone (QA, MIC): Table 49. In a few lines:
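Broth microdilution in TSB (pH 7.3) for bacteria or SDB (pH 5.6) for C. albicans, 1:1.3333 serial dilutions covering one log in nine steps, agents alone or blended for synergy; triplicate wells inoculated to ~10^6 CFU/mL bacteria or ~10^5 CFU/mL yeast; uninoculated wells correct compound turbidity.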

Several values for one entry are separate records, joined by “and”; a condition that tells them apart may be missing. Equal entries are not always repeated.

Take `OCC1CCC(CO)CC1` (stereo not shown) [1,4-CHDM, 1,4-cyclohexanedimethanol]: the “Antimicrobial activity against Pseudomonas aeruginosa in skin cream (in words)” value in assay [1] is reported as “significant activity”. Besides, the “Antimicrobial activity against Aspergillus niger in skin cream (in words)” value in assay [2] is “significant activity”. Also, the QA/a in assay [3] (CHDM alone (QA) or in combination with BA:DHA (a), plate 139D, day 1) came out at 3.11; in assay [3] (CHDM alone (QA) or in combination with BA:DHA (a), plate 139D, day 2), 4.15; in assay [3] (CHDM alone (QA) or in combination with BA:DHA (a), plate 220D, day 1), 3.30; in assay [3] (CHDM alone (QA) or in combination with BA:DHA (a), plate 220D, day 2), 3.30; in assay [3] (CHDM alone (QA) or in combination with BA:DHA (a), plate 235D, day 1), 5.00; in assay [3] (CHDM alone (QA) or in combination with BA:DHA (a), plate 235D, day 2) it was 5.00. The QA/a came out at 3.11 in assay [3] (CHDM: MIC alone (QA) or conc. in combination with CP (a), plate 138D, day 1); 4.15 in assay [3] (CHDM: MIC alone (QA) or conc. in combination with CP (a), plate 138D, day 2); 4.15 in assay [3] (CHDM: MIC alone (QA) or conc. in combination with MIT (a), plate 137D, day 2); 3.30 in assay [3] (CHDM: MIC alone (QA) or conc. in combination with MP (a), plate 166D, day 1); 3.30 in assay [3] (CHDM: MIC alone (QA) or conc. in combination with MP (a), plate 166D, day 2). Further, the “QA, MIC of CHDM alone” value in assay [3] (day 1 of incubation, plate 125D (CG series)) is 3.11 weight percent; in assay [3] (day 1 of incubation, plates 124D, 219D, 234D (PE series)), 3.30 weight percent and 3.75 weight percent and 3.11 weight percent; in assay [3] (day 2 of incubation, plate 125D (CG series)), 3.11 weight percent; in assay [3] (day 2 of incubation, plates 124D, 219D (PE series)), 3.11 weight percent and 3.30 weight percent. In addition, the “QA/a: concentration of CHDM alone (QA, MIC)” value in assay [3] (Day 1) was determined as 3.11 weight percent; in assay [3] (Day 2), 4.15 weight percent.

Source of the values: patent US20110028566A1, “COMPOSITIONS AND PRODUCTS CONTAINING CYCLOALIPHATIC DIOL ANTIMICROBIAL AGENTS AND METHODS OF USING THE COMPOSITIONS AND PRODUCTS” (EASTMAN CHEMICAL COMPANY, priority 2009, published 2011).
